Assay [1] addresses T1, wt human TYK2, catalytic site (Homo sapiens, UniProt P29597).
T1 construct: wt human TYK2, catalytic site; purchased SignalChem
T1 sequence (P29597 897-1176 limits assumed): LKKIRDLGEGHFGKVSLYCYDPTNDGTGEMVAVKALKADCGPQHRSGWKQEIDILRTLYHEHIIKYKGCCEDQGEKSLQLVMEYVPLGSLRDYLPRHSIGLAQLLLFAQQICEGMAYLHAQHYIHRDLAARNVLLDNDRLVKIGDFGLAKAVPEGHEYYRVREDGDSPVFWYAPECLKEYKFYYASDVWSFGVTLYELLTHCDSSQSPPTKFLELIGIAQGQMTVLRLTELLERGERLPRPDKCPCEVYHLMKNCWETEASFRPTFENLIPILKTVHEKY
Briefly: HTRF KinEASE assay, TYK2. The class given is biochemical. The following applies: 1 μM ATP; read-out: IC50, Activity Toward TYK2. The method in brief:
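HTRF KinEASE-TK readout with 1 μM biotinylated TK substrate in 1× kinase buffer, ≥30 min at room temperature, then antibody/streptavidin-XL665 detection for 60 min. TYK2 at 2 nM with 1 μM ATP; JAK2 at 1 nM with 100 μM ATP. Analysis uses emission ratios.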

Assay [2] deals with T2, wt human JAK1, catalytic site (Homo sapiens, UniProt P23458).
T2 construct: wt human JAK1, catalytic site; purchased ThermoFisher
T2 sequence (P23458 875-1153 limits assumed): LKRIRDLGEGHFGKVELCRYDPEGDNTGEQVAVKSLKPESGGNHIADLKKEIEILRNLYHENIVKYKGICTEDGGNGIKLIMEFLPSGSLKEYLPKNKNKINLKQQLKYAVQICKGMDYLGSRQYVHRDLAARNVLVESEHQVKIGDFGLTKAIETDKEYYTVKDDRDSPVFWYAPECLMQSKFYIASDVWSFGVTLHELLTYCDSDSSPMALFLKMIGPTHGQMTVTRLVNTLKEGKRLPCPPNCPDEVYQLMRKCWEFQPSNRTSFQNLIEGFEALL
The assay can be described thus: HTRF KinEASE assay, JAK1. It is filed as biochemical. The settings on record: 2.5 μM ATP; read-out: IC50, Activity Toward JAK1. Put shortly: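 Two-step HTRF KinEASE assay: compound, kinase/biotinylated TK substrate and ATP were incubated at least 30 min at room temperature. Antibody plus streptavidin-XL665 was then added and plates were read after 60 min. Inhibition was derived from emission ratios according to the kit protocol.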

Several values for one entry are separate records, joined by “and”; a condition that tells them apart may be missing. Identical values can stand only once.

In the case of `NC(=O)c1nn(-c2c(Cl)cc(F)cc2Cl)nc1Nc1ccc(C(=O)N2CC[C@@H](F)C2)cc1` [compound 146, (R)-2-(2,6-dichloro-4-fluorophenyl)-5-((4-(3-fluoropyrrolidine-1-carbonyl)phenyl)amino)-2H-1,2,3-triazole-4-carboxamide], the IC50 in assay [1] is 0.01 to 0.1 µM; in assay [2] it was less than 0.01 µM.

Consider `NC(=O)c1nn(-c2c(Cl)cccc2Cl)nc1Nc1cnn(CC(=O)N2CCS(=O)(=O)CC2)c1` [compound 174, 2-(2,6-dichlorophenyl)-5-((1-(2-(1,1-dioxidothiomorpholino)-2-oxoethyl)-1H-pyrazol-4-yl)amino)-2H-1,2,3-triazole-4-carboxamide], for which the IC50 in assay [1] was 0.01 to 0.1 µM; in assay [2] it was less than 0.01 µM.

As for `CCc1nc(C(F)(F)F)nn1-c1ccc(Nc2cn(-c3c(Cl)cccc3Cl)nc2C(N)=O)cc1` [compound 277, 1-(2,6-dichlorophenyl)-4-((4-(5-ethyl-3-(trifluoromethyl)-1H-1,2,4-triazol-1-yl)phenyl)amino)-1H-pyrazole-3-carboxamide], the IC50 in assay [1] is less than 0.01 µM; in assay [2], 0.1 to 1 µM.

For the compound `NC(=O)c1nn(-c2c(Cl)cccc2Cl)cc1Nc1ccc(C(=O)N2CCCC2)cn1` [compound 226, 1-(2,6-dichlorophenyl)-4-((5-(pyrrolidine-1-carbonyl)pyridin-2-yl)amino)-1H-pyrazole-3-carboxamide], the IC50 in assay [1] fell in the range of 0.01 to 0.1 µM; in assay [2] it was 0.1 to 1 µM.

As for `Cc1csc2nnc(-c3ccc(Nc4cn(-c5c(Cl)cccc5Cl)nc4C(N)=O)cn3)n12` [compound 475, 1-(2,6-dichlorophenyl)-4-((6-(5-methylthiazolo[2,3-c][1,2,4]triazol-3-yl)pyridin-3-yl)amino)-1H-pyrazole-3-carboxamide], the concentration for half-maximal inhibition (IC50) in assay [1] and in assay [2] was 0.1 to 1 µM throughout.

In the case of `CCn1ncnc1-c1ccc(Nc2cn(-c3c(Cl)cccc3Cl)nc2C(N)=O)nc1` [compound 431, 1-(2,6-dichlorophenyl)-4-((5-(1-ethyl-1H-1,2,4-triazol-5-yl)pyridin-2-yl)amino)-1H-pyrazole-3-carboxamide], the IC50 lay within 0.1 to 1 µM in assay [1] and 0.01 to 0.1 µM in assay [2].

As to `Cn1cc(C(F)(F)F)nc1-c1ccc(Nc2nn(-c3c(Cl)cccc3Cl)nc2C(N)=O)cc1` [compound 115, 2-(2,6-dichlorophenyl)-5-((4-(1-methyl-4-(trifluoromethyl)-1H-imidazol-2-yl)phenyl)amino)-2H-1,2,3-triazole-4-carboxamide], the results for the IC50 in assay [1] and in assay [2] were 0.01 to 0.1 µM and 0.1 to 1 µM, respectively.

As to `NC(=O)c1nn(-c2c(Cl)cccc2Cl)cc1Nc1ccc(C(=O)N2CCOCC2)cn1` [compound 74, 1-(2,6-dichlorophenyl)-4-((5-(morpholine-4-carbonyl)pyridin-2-yl)amino)-1H-pyrazole-3-carboxamide], the IC50 in assay [1] and in assay [2] was 0.01 to 0.1 µM throughout.

Regarding `CC(C)(C)OC(=O)N[C@H]1CCN(C(=O)c2ccc(Nc3cn(-c4c(Cl)cccc4Cl)nc3C(N)=O)cc2)C1` [compound 325, (S)-tert-butyl_(1-(4-((3-carbamoyl-1-(2,6-dichlorophenyl)-1H-pyrazol-4-yl)amino)benzoyl)pyrrolidin-3-yl)carbamate], the IC50 was 0.01 to 0.1 µM in assay [1] and 0.1 to 1 µM in assay [2].

Take `Cc1ncnn1-c1ccc(Nc2nn(-c3c(Cl)cccc3Cl)nc2C(N)=O)nc1` [compound 156, 2-(2,6-dichlorophenyl)-5-((5-(5-methyl-1H-1,2,4-triazol-1-yl)pyridin-2-yl)amino)-2H-1,2,3-triazole-4-carboxamide]: the IC50 in assay [1] and in assay [2] was 0.01 to 0.1 µM in each case.

Regarding `CN1CCC(Oc2ccc(Nc3cn(-c4c(Cl)cccc4Cl)nc3C(N)=O)cn2)CC1` [compound 405, 1-(2,6-dichlorophenyl)-4-((6-((1-methylpiperidin-4-yl)oxy)pyridin-3-yl)amino)-1H-pyrazole-3-carboxamide], the IC50 in assay [1] and in assay [2] was 0.1 to 1 µM each time.

As to `Cn1ccc(=O)n1-c1ccc(Nc2cn(-c3c(Cl)cccc3Cl)nc2C(N)=O)cc1` [compound 77, 1-(2,6-dichlorophenyl)-4-((4-(2-methyl-5-oxo-2,5-dihydro-1H-pyrazol-1-yl)phenyl)amino)-1H-pyrazole-3-carboxamide], the IC50 in assay [1] and in assay [2] was 0.1 to 1 µM throughout.

`NC(=O)c1nn(-c2c(Cl)cccc2Cl)cc1Nc1ccc(C(=O)N2CCN(C3CC3)CC2)cn1` [compound 383, 4-((5-(4-cyclopropylpiperazine-1-carbonyl)pyridin-2-yl)amino)-1-(2,6-dichlorophenyl)-1H-pyrazole-3-carboxamide]: the IC50 in assay [1] is 0.01 to 0.1 µM and 0.1 to 1 µM; in assay [2] it was 0.1 to 1 µM.

Regarding `NC(=O)c1nn(-c2c(Cl)cccc2Cl)nc1Nc1ccc(-n2nncc2C(F)(F)F)cn1` [compound 157, 2-(2,6-dichlorophenyl)-5-((5-(5-(trifluoromethyl)-1H-1,2,3-triazol-1-yl)pyridin-2-yl)amino)-2H-1,2,3-triazole-4-carboxamide], the IC50 lay in the range of 0.1 to 1 µM in assay [1] and 0.01 to 0.1 µM in assay [2].

In the case of `NC(=O)c1nn(-c2c(Cl)cccc2Cl)cc1Nc1ccc(-c2ccnnc2)nc1` [compound 352, 1-(2,6-dichlorophenyl)-4-((6-(pyridazin-4-yl)pyridin-3-yl)amino)-1H-pyrazole-3-carboxamide], the IC50 in assay [1] and in assay [2] was 0.1 to 1 µM each time.

Consider `NC(=O)c1nn(-c2c(Cl)cccc2Cl)cc1Nc1ccc(C(=O)N2CCCCCC2)cc1` [compound 95, 4-((4-(azepane-1-carbonyl)phenyl)amino)-1-(2,6-dichlorophenyl)-1H-pyrazole-3-carboxamide], for which the IC50 in assay [1] is less than 0.01 µM; in assay [2], 0.1 to 1 µM.

In the case of `CC1(C)CN(C(=O)c2ccc(Nc3nn(-c4c(Cl)cccc4Cl)nc3C(N)=O)cc2)C1` [compound 166, 2-(2,6-dichlorophenyl)-5-((4-(3,3-dimethylazetidine-1-carbonyl)phenyl)amino)-2H-1,2,3-triazole-4-carboxamide], the figures for the IC50 in assay [1] and in assay [2] were 0.01 to 0.1 µM and less than 0.01 µM, respectively.

With `NC(=O)c1nn(-c2c(Cl)cccc2Cl)cc1Nc1ccc(-c2nnc3cccc(C(F)(F)F)n23)nc1` [compound 471, 1-(2,6-dichlorophenyl)-4-((6-(5-(trifluoromethyl)-[1,2,4]triazolo[4,3-a]pyridin-3-yl)pyridin-3-yl)amino)-1H-pyrazole-3-carboxamide], the IC50 in assay [1] and in assay [2] was 0.1 to 1 µM each time.

On to `Cc1cnc(C)c(-n2cc(Nc3cn(-c4c(Cl)cccc4Cl)nc3C(N)=O)cn2)n1` [compound 374, 1-(2,6-dichlorophenyl)-4-((1-(3,6-dimethylpyrazin-2-yl)-1H-pyrazol-4-yl)amino)-1H-pyrazole-3-carboxamide], for which the IC50 in assay [1] and in assay [2] was 0.1 to 1 µM throughout.

On to `NC(=O)c1nn(-c2c(Cl)cc(F)cc2Cl)nc1Nc1ccc(C(=O)N2CCS(=O)(=O)CC2)cc1` [compound 175, 2-(2,6-dichloro-4-fluorophenyl)-5-((4-(1,1-dioxidothiomorpholine-4-carbonyl)phenyl)amino)-2H-1,2,3-triazole-4-carboxamide], for which the IC50 in assay [1] and in assay [2] was less than 0.01 µM in each case.

Turning to `NC(=O)c1nn(-c2c(Cl)cccc2Cl)nc1Nc1ccc(C(=O)N2CC(F)C2)cn1` [compound 135, 2-(2,6-dichlorophenyl)-5-((5-(3-fluoroazetidine-1-carbonyl)pyridin-2-yl)amino)-2H-1,2,3-triazole-4-carboxamide], the IC50 in assay [1] and in assay [2] was 0.01 to 0.1 µM throughout.

For `CC1(C)CN(C(=O)c2ccc(Nc3cn(-c4c(Cl)cccc4Cl)nc3C(N)=O)cn2)C1` [compound 464, 1-(2,6-dichlorophenyl)-4-((6-(3,3-dimethylazetidine-1-carbonyl)pyridin-3-yl)amino)-1H-pyrazole-3-carboxamide], the IC50 in assay [1] fell in the range of 0.01 to 0.1 µM; in assay [2], 0.1 to 1 µM.

`NC(=O)c1nn(-c2c(Cl)cc(F)cc2Cl)nc1Nc1ccc(C(=O)N2CCSCC2)cc1` [compound 177, 2-(2,6-dichloro-4-fluorophenyl)-5-((4-(thiomorpholine-4-carbonyl)phenyl)amino)-2H-1,2,3-triazole-4-carboxamide]: the IC50 is 0.01 to 0.1 µM in assay [1] and less than 0.01 µM in assay [2].

Turning to `NC(=O)c1nn(-c2c(Cl)cccc2Cl)nc1Nc1ccc(-c2nc(C(F)(F)F)cn2CCO)cc1` [compound 112, 2-(2,6-dichlorophenyl)-5-((4-(1-(2-hydroxyethyl)-4-(trifluoromethyl)-1H-imidazol-2-yl)phenyl)amino)-2H-1,2,3-triazole-4-carboxamide], the IC50 in assay [1] and in assay [2] was less than 0.01 µM throughout.

Regarding `Cc1nnnn1-c1ccc(Nc2cn(-c3c(Cl)cccc3Cl)nc2C(N)=O)cc1` [compound 243, 1-(2,6-dichlorophenyl)-4-((4-(5-methyl-1H-tetrazol-1-yl)phenyl)amino)-1H-pyrazole-3-carboxamide], the IC50 was less than 0.01 µM in assay [1] and 0.01 to 0.1 µM in assay [2].

As for `CCc1cnnn1-c1ccc(Nc2cn(-c3c(Cl)cccc3Cl)nc2C(N)=O)cc1` [compound 411, 1-(2,6-dichlorophenyl)-4-((4-(5-ethyl-1H-1,2,3-triazol-1-yl)phenyl)amino)-1H-pyrazole-3-carboxamide], the values for the IC50 in assay [1] and in assay [2] were less than 0.01 µM and 0.01 to 0.1 µM, respectively.
